Here are results for ten compounds from patent publication US20250180508A1, “QUANTITATIVE LIPIDOMIC ANALYSIS, METHODS AND USES THEREOF” (McMaster University, priority 2023, published 2025).

Data set [1] in a line: Pooled sub-group untargeted serum lipid profiling by MSI-NACE-MS, high-dose FO supplementation vs placebo/baseline. Conditions: pooled serum extracts; for Fold-change (average fold-change in ion response for serum lipid following FO supplementation to baseline): high-dose FO (EPA 3 g/day + DHA 2 g/day) vs baseline, underivatized, negative ion mode; for Change in serum lipid response following FO supplementation (in words): high-dose FO vs baseline/placebo, MSI-NACE-MS positive or negative ion mode.
Source text: (§2) In the first discovery cohort, fasting serum samples were collected from participants in a randomized, double-blinded, placebo-controlled intervention study that investigated the effects of FO supplementation on attenuating skeletal muscle disuse atrophy following leg immobilization (84). […] Briefly, this study comprised a cohort of healthy young women with a mean age of 22 years (range: 19-31 years) and BMI of 24 kg/m^2 (range: 18-26 kg/m^2) recruited locally from the Hamilton area. All participants received either a high-dose FO (3.0 g EPA and 2.0 g DHA daily; n=9) or a placebo control based on an isoenergetic and volume equivalent sunflower oil (SO) daily (n=9). Repeat fasting serum samples were collected from participants at baseline and after 28, 42 and 56 days of the intervention. All serum samples were then stored frozen at −80° C.
(§3) Fasting serum and plasma samples were subject to a two-step chemical derivatization protocol using 9-fluorenylmethyoxycarbonyl chloride (FMOC) and 3-methyl-1-p-tolyltriazene (FMOC/MTT) as described in example 1. This reaction was introduced as a more convenient alternative to diazomethane to improve separation resolution and ionization efficiency by converting zwitter-ionic PL species that co-migrate close to the electroosmotic flow (EOF) into methylated phosphatidylcholines (PCs) and sphingomyelins (SMs) with a permanent positive charge. Briefly, in a glass sample vial, a 50 μL aliquot of serum/plasma sample was subject to a methyl-tert-butyl ether (MTBE) extraction, where 100 μL of methanol with 0.01% vol of BHT as antioxidant, and PC 16:0[D62] as internal standard were first added, and samples then mixed to induce protein precipitation. Next, 250 μL of MTBE was added and mixed prior to adding 100 μL of deionized water to induce phase separation. Samples were then centrifuged at 4000 g at 4° C. where then 200 μL of the organic layer was transferred into a new glass vial and dried down. Next, 100 μL of 0.85 mmol/L FMOC in chloroform containing PC 18:0[D70] as a second internal standard was added to dried serum/plasma extracts and mixed for 5 min at room temperature before drying down again. Next, 50 μL of MTBE containing 450 mmol/L of MTT was added to the glass vial with the lid sealed with Teflon tape. This vessel was then heated to 60° C. for 60 min.

The nature of data set [2]: Omega-3 index (O3I) from erythrocyte PL FAMEs by GC-FID, EPA or DHA trial. Format: in vivo, human. Conditions: for O3I (Post): 90-day period; for Average O3I status after supplementation: high-dose intake, after 90 days, both sexes. An excerpt:
(§1) This study was approved by the Research Ethics Board at the University of Guelph. Participant characteristics (sex, age, BMI etc.) and blood draws for O3I assessment were obtained for all participants (n=83) on study day visits. Purified EPA (KD-PUR EPA700TG) and DHA (KD-PUR DHA700TG) oils, as well as OO, were obtained from KD Pharma (Bexbach, Germany) with EPA and DHA in their triglyceride forms. The FA content of these supplements was previously reported to be 75.7%±0.01% for oleic acid (18:1) in the OO supplement, 74.7%±0.09% EPA and 0.55%±0.01% DHA in the EPA supplement, and 72.3%±1.3% DHA and 1.05+0.11% EPA in the DHA supplement (91). All capsules contained 0.20% vol. tocopherol to prevent oxidation of polyunsaturated lipids. Exclusion criteria included use of FO supplements within the previous 3 months, >2 servings of fish/seafood or other omega-3 FA-rich products per week, prescribed medication use (except oral contraceptives), current smoking and history of cardiovascular disease. Participants were assigned via block randomization with stratification by sex to one of three treatment arms, namely OO supplement (n=27), EPA supplement (n=28) and DHA supplement (n=28). Participants were instructed to maintain regular exercise and dietary habits throughout the study. After overnight fasts, participants were subject to blood sampling at the Human Nutraceutical Research Unit at the University of Guelph before (baseline) and after (endpoint) of the 90-day intervention period. Blood was collected into EDTA-treated vacutainers was used to isolate plasma and erythrocytes. Samples were separated by centrifugation at 700×g at 4° C. for 15 min. A similar protocol was performed for FAME analysis from erythrocyte PL extracts following fractionation and saponification using GC-FID with normalization to heptadecanoic acid as internal standard (92). In this case, the O3I was calculated by taking the sum of EPA and DHA relative to the sum of 15 saturated, monosaturated and polyunsaturated FAs in fasting plasma samples.

Data set [3] can be described thus: Targeted plasma PC analysis by MSI-NACE-MS in placebo-controlled EPA or DHA (~3 g/day) trial over 90 days. The class given is in vivo, human. Conditions: change in plasma PC 36:5 + PC 38:6 from baseline, mean ± standard deviation.
Source text: as §1, with “The FA content of these supplements was previously reported to be 75.7%±0.01% for oleic acid (18:1) in the OO supplement, 74.7%±0.09% EPA and 0.55%±0.01% DHA in the EPA supplement, and 72.3%±1.3% DHA and 1.05+0.11% EPA in the DHA supplement (91).” left out, “A similar protocol was performed for FAME analysis from erythrocyte PL extracts following fractionation and saponification using GC-FID with normalization to heptadecanoic acid as internal standard (92).” left out
(positive ion mode) or FA 14:0[D27]

The conditions of data set [4]: in vivo.
Source text: as §2, §3
Where [5] appears, read: change from baseline, 3.0 g/day, in %.
Setting [6] is: change in erythrocyte PL membrane derived O3I from baseline, females (F), mean ± standard deviation.
Setting [7] is: change in erythrocyte PL membrane derived O3I from baseline, males (M), mean ± standard deviation.
Setting [8] is: difference in O3I status from baseline, similar dose of EPA or DHA.

Values joined by “and” are separate entries in the source; they are usually repeats but may differ in a detail not shown here. Equal entries are not always repeated. Where two headings read alike, the source gives them in different places.

With `CCCCCCCCCCCCCCCCC(=O)O` [FA 17:0], the “Fold-change (average fold-change in ion response for serum lipid following FO supplementation to baseline)” value (from here on “Fold-change”) in data set [1] was 0.85.
Still for that read-out and setting: to `CCCCCCCCCCCCCCC(=O)O` [FA 15:0] belongs 0.85.
Still for that read-out and setting: the result for `CCCCCCCCCCCCCCCCCC(=O)O` [FA 18:0, stearic acid] reads 0.82; that for `CCCCCCCCCCCCCC(=O)O` [FA 14:0], 0.60.
As for `CCCCCCCCCCCC(=O)O` [FA 12:0], in data set [1], the “Fold-change” value is 0.86.
In the case of PE 38:5, in data set [1], the “Fold-change” value amounted to 0.49 and the “Change in serum lipid response following FO supplementation (in words)” value (from here on “Change … (in words)”) is on record as “did not exhibit increases”.
Take `CC/C=C\C/C=C\C/C=C\C/C=C\C/C=C\CCCC(=O)O` [EPA, eicosapentaenoic acid]: the “Fold-change” value in data set [1] is 4.16. The “Change … (in words)” value in data set [1] is listed as “more modest increase”. Further, the “O3I (Post)” value in data set [2] (Female, 3.0 g/day) was found to be 6.75 ± 1.20; in data set [2] (Male, 3.0 g/day), 6.23 ± 1.10. The ΔO3I was determined as 2.99 ± 1.19 in data set [2] (setting [5]), 3.14 ± 1.25 in data set [2] (setting [6]), 2.83 ± 1.14 in data set [2] (setting [7]) and 2.99 ± 1.19% in data set [2] (setting [8]). Moreover, in data set [2], the “Average O3I status after supplementation” value was 8.30±1.21%. The entries for the “Δ(PC 36:5 + PC 38:6)” value in data set [3] (females (F)) and in data set [3] (males (M)) were 33.71 ± 16.15 and 19.30 ± 14.26, respectively.
Turning to `CC/C=C\C/C=C\C/C=C\C/C=C\C/C=C\C/C=C\CCC(=O)O` [DHA, docosahexaenoic acid], in data set [2] (DHA vs EPA at the same dose level), the “Greater increase in O3I from baseline (relative efficacy) as compared to EPA” value is 63% and 64%. Besides, the “O3I (Post)” value in data set [2] (Female, 3.0 g/day) was determined as 8.04 ± 1.34; in data set [2] (Male, 3.0 g/day) it was 8.73 ± 0.97. Also, the ΔO3I came to 4.90 ± 1.33 in data set [2] (setting [5]), 4.31 ± 1.26 in data set [2] (setting [6]), 5.57 ± 1.10 in data set [2] (setting [7]) and 4.90±1.33% in data set [2] (setting [8]). The “Average O3I status after supplementation” value in data set [2] is on record as 6.49±1.17%. The “Change … (in words)” value in data set [4] is “more modest increase”. For the same compound, the “Δ(PC 36:5 + PC 38:6)” value in data set [3] (females (F)) turned out to be 26.11 ± 16.15; in data set [3] (males (M)) it was 25.80 ± 20.88.
As for docasapentaenoic acid [FA 22:5], in data set [1], the “Fold-change” value came to 0.57 and the “Change … (in words)” value was “did not respond to supplementation”.
For `CCCCCCCC/C=C\CCCCCCCC(=O)O` [FA 18:1, oleic acid], the “Fold-change” value in data set [1] is reported as 0.83.
